Values after ≈ are worked out from the molar mass of the structure shown.
Columns and labels:
[1] = system: Mycobacterium tuberculosis H37Rv (ATCC 27294); assay: Microplate Alamar Blue Assay (MABA): primary screening and MIC determination; format: cell-based; conditions: Mycobacterium tuberculosis; retest at lower concentrations in the MABA; read-out: MIC
[2] = system: M. tuberculosis Erdman (ATCC 35801); assay: 90% and 99% effective concentration in M. tuberculosis infected macrophages; format: cell-based; conditions: for EC99 / EC^+99: monolayers of mouse bone marrow macrophages; for EC99: […]% reduction in residual mycobacterial growth after 7 days compared with untreated controls; for EC^+99: reduction in residual mycobacterial growth after 7 days compared with untreated controls

| Compound | MIC [1] | melting point | EC90/MIC ([2]; MIC data from Table 1) | EC99 [2] | EC^+99 [2] |
| --- | --- | --- | --- | --- | --- |
| COc1ccc(Cn2cnc3c(-c4ccco4)ncnc32)cc1 [Example 33, 6-(2-Furyl)-9-(4-methoxyphenylmethyl)-9H-purine] | 1.56 µg/mL (≈ 5.09 µM) | 175 to 176 °C | >8.01 | >12.5 µg/mL | >12.5 µg/mL |
| CSc1ccc(Cn2cnc3c(-c4ccco4)ncnc32)cc1 [Example 42, 6-(2-Furyl)-9-(4-methylthiophenylmethyl)-9H-purine] | 6.25 µg/mL (≈ 19.4 µM) | 157 to 159 °C | – | – | – |
| CN(C)c1ccc(Cn2cnc3c(-c4ccco4)ncnc32)cc1 [Example 43, 9-(4-Dimethylaminophenylmethyl)-6-(2-furyl)-9H-purine] | 12.5 µg/mL (≈ 39.1 µM) | 158 to 160 °C | – | – | – |
| Clc1nc(-c2ccco2)c2ncn(Cc3ccc(Cl)c(Cl)c3)c2n1 [Example 47, 2-Chloro-9-(3,4-dichlorophenylmethyl)-6-(2-furyl)-9H-purine] | 6.25 µg/mL (≈ 16.5 µM) | 191 to 193 °C | – | – | – |
| Clc1cccc(Cn2cnc3c(-c4ccco4)nc(Cl)nc32)c1 [Example 48, 2-Chloro-9-(3-chlorophenylmethyl)-6-(2-furyl)-9H-purine] | 3.13 µg/mL (≈ 9.07 µM) | 196 to 198 °C | – | – | – |
| Fc1ccc(Cn2cnc3c(-c4ccco4)nc(Cl)nc32)cc1 [Example 49, 2-Chloro-9-(4-fluorophenylmethyl)-6-(2-furyl)-9H-purine] | 3.13 µg/mL (≈ 9.52 µM) | 152 to 155 °C | – | – | – |
| COc1ccc(Cn2cnc3c(-c4ccco4)nc(Cl)nc32)cc1 [Example 51, 2-Chloro-6-(2-furyl)-9-(4-methoxyphenylmethyl)-9H-purine] | 0.39 µg/mL (≈ 1.14 µM) | – | – | 0.67 µg/mL | 0.02 µg/mL |
| COc1cccc(Cn2cnc3c(-c4ccco4)nc(Cl)nc32)c1 [Example 52, 2-Chloro-6-(2-furyl)-9-(3-methoxyphenylmethyl)-9H-purine] | 3.13 µg/mL (≈ 9.19 µM) | 160 to 161 °C | – | – | – |
| COc1ccc(Cn2cnc3c(-c4ccco4)nc(Cl)nc32)cc1C [Example 53, 2-Chloro-6-(2-furyl)-9-(4-methoxy-3-methylphenylmethyl)-9H-purine] | 0.78 µg/mL (≈ 2.2 µM) | 177 to 179 °C | – | – | – |
| COc1ccc(Cn2cnc3c(-c4ccc(OC)cc4)nc(Cl)nc32)cc1 [Example 54, 2-Chloro-6-(4-methoxyphenyl)-9-(4-methoxyphenylmethyl)-9H-purine] | 1.56 µg/mL (≈ 4.1 µM) | 152 to 154 °C | – | – | – |
| COC(c1ccccc1)n1cnc2c(-c3cccs3)nc(Cl)nc21 (stereo not drawn) [Example 55, 2-Chloro-9-(methoxyphenylmethyl)-6-(2-thienyl)-9H-purine] | 0.78 µg/mL (≈ 2.19 µM) | 183 to 185 °C | – | – | – |
| COc1ccc(Cn2cnc3c(-c4ccco4)nc(SC)nc32)cc1 [Example 68, 6-(2-Furyl)-9-(4-methoxyphenylmethyl)-2-methylthio-9H-purine] | 0.78 µg/mL (≈ 2.21 µM) | 147 to 148 °C | – | – | – |
| COc1ccc(Cn2ccc3c(-c4ccco4)ncnc32)cc1 [Example 109, 4-(2-Furyl)-7-(4-methoxybenzyl)-7H-pyrrolo[2,3-d]pyrimidine] | 0.39 µg/mL (≈ 1.28 µM) | 130 to 131 °C | – | – | – |
